In one experiment the test system is BT474. Briefly: MTT growth inhibition assay, paclitaxel drug sensitivity. Type of experiment: cell-based. The conditions noted are these: Homo sapiens, BT-474, BT474 breast cancer cells, 72 h treatment, read-out: paclitaxel inhibitor concentration 50 (IC50). As for the experimental part:
(§1) The human breast cancer cell lines, including HCC1954, BT474, MCF7, MDA-MB-231, HCC1937 cells, and normal breast cell, Hs371T, were purchased from American Type Culture Collection (ATCC) and cultured at 37° C. in 5% CO2. HCC1954, BT474, and HCC1937 cells were grown in RPMI-1640 (Hyclone), and MCF7, MDA-MB-231, and Hs371T cells were cultured in DMEM (Cyclone). All complete media contained 10% fetal bovine serum (FBS, ThermoFisher Scientific), 100 U/mL penicillin, and 100 μg/mL streptomycin (Millipore Sigma).
(§2) Drug sensitivity was determined by the 3-(4, 5-dimethylthiazol-2-yl)-2, 5-diphenyl tetrazolium bromide (MTT) colorimetric assay. First, cells were counted with a hemocytometer, seeded in a 96-well plate, and cultured for 24 h. After that, cells were treated with paclitaxel for 72 h: paclitaxel (1.00E-06-10 µM). Subsequently, MTT dye (Sigma-Aldrich; Merck KGaA) at a final concentration of 0.5 mg/ml was added for 3 hours. This was followed by replacing the medium and dissolving the formazan crystals with DMSO. The optical density (OD; absorbance at 540 nm) was measured using a plate reader (Tecan). Data (mean±SD of at least three independent experiments performed in triplets) are presented as the relative proliferation as a function of time after seeding.
(§3) MTT assay was performed for each cell line to determine the paclitaxel inhibitor concentration 50 (IC50) in the six breast cancer cell lines included.
In general terms: Formazan colour is commonly taken as a measure of viable cells.

A further experiment concerns MD-MB-231. Described as above. It is filed as cell-based. The conditions noted are these: Homo sapiens, MD-MB-231 breast cancer cells, 72 h treatment, read-out: paclitaxel inhibitor concentration 50 (IC50). As to the method:
as §1, §2, §3

The subject of another experiment is HCC1954. Described as above. Type of experiment: cell-based. Conditions: Homo sapiens, HCC1954 breast cancer cells, 72 h treatment, read-out: paclitaxel inhibitor concentration 50 (IC50). As for the experimental part: as §1, §2, §3
The subject of a further experiment is HCC1937. Described as above. Type of experiment: cell-based. Conditions: Homo sapiens, HCC1937 breast cancer cells, 72 h treatment, read-out: paclitaxel inhibitor concentration 50 (IC50). As to the method:
as §1, §2, §3

In the next experiment the test system is HCC1954 REPX. Briefly: MTT growth inhibition assay, paclitaxel-resistant subtype. It is filed as cell-based, human. As to the method:
To develop the paclitaxel resistance subtype, cells were continually exposed to stepwise increases in the concentration of paclitaxel over 16 to 18 weeks. Briefly, HCC1954 cells were seeded at a density of ˜5×10^5/mL in a T75 cell culture flask with 10 mL complete growth medium. After 4-6 hours of incubation, relatively low concentrations of paclitaxel (ranging from 1 to 150 nM) were added into the medium. Cells were left in paclitaxel for three days or until a stable cell re-population formed. Regular medium replenishment was performed throughout this period. The paclitaxel concentration was then increased by 0.5 to 2-fold. This stepwise dose escalation continued for 16 to 18 weeks until the paclitaxel concentration reached at least ten times the starting concentration. […]
Drug sensitivity was determined by the 3-(4, 5-dimethylthiazol-2-yl)-2, 5-diphenyl tetrazolium bromide (MTT) colorimetric assay. First, cells were counted with a hemocytometer, seeded in a 96-well plate, and cultured for 24 h. […] The optical density (OD; absorbance at 540 nm) was measured using a plate reader (Tecan). […]
To generate a resistance cell model in vitro (HCC1954 REPX), the HCC1954 cell line was treated with increasing concentrations of paclitaxel, and cell viability was re-evaluated after 18 weeks of treatment.

Data on one compound can be found in patent publication US20240240256A1, “MOLECULAR ANALYSIS OF EXTRACELLULAR VESICLES (EVs) FOR THE PREDICTION AND MONITORING OF DRUG RESISTANCE IN CANCER” (The General Hospital Corporation, priority 2023, published 2024).

Turning to `CC(=O)O[C@H]1C(=O)[C@@]2(C)[C@H]([C@H](OC(=O)c3ccccc3)[C@]3(O)C[C@H](OC(=O)[C@H](O)[C@@H](NC(=O)c4ccccc4)c4ccccc4)C(C)=C1C3(C)C)[C@]1(OC(C)=O)CO[C@@H]1C[C@@H]2O` [paclitaxel, Paclitaxel], the IC50 turned out to be 100 nM in the experiment with BT474; 600 nM in the experiment with MD-MB-231; 14 nM in the experiment with HCC1954; 9900 nM in the experiment on HCC1937; 1800 nM with HCC1954 REPX (Homo sapiens, HCC1954 REPX paclitaxel-resistant subtype, after 18 weeks of paclitaxel treatment, MTT). For the same compound, in the experiment with HCC1954 REPX (IC50 in HCC1954 REPX compared to parental HCC1954), the increase in paclitaxel-resistance is 128.57 fold.
